# Experimental data as given in patent US9006450B2 (Boehringer Ingelheim International GmbH, priority 2010, dated 2015).
# Target: T1, human ACC2 (Homo sapiens, UniProt O00763)
# T1 construct: made in house; host or cells: insect cells (baculoviral expression system)
# Experiment: ACC2 assay, spectrophotometric 384 well assay (NADH-linked, coupled lactate dehydrogenase/pyruvate kinase)
# Format: biochemical
# Conditions: ACC2 assay, hACC2 construct lacking 128 N-terminal amino acids, 25° C., 340 nm; read-out: IC50
# Outline: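 ADP output tracked via pyruvate kinase/lactate dehydrogenase NADH oxidation, slope at 340 nm over 15 min, 25° C, with 500 μM ATP and 200 μM each acetyl-CoA and NADH. Enzyme: insect-cell-expressed human ACC2, N-terminal 128 residues deleted; pH 7.5 Tris with citrate, KHCO3. IC50 from four-parameter regression versus vehicle and no-acetyl-CoA controls.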
# T1 sequence (O00763 129-2458 limits assumed): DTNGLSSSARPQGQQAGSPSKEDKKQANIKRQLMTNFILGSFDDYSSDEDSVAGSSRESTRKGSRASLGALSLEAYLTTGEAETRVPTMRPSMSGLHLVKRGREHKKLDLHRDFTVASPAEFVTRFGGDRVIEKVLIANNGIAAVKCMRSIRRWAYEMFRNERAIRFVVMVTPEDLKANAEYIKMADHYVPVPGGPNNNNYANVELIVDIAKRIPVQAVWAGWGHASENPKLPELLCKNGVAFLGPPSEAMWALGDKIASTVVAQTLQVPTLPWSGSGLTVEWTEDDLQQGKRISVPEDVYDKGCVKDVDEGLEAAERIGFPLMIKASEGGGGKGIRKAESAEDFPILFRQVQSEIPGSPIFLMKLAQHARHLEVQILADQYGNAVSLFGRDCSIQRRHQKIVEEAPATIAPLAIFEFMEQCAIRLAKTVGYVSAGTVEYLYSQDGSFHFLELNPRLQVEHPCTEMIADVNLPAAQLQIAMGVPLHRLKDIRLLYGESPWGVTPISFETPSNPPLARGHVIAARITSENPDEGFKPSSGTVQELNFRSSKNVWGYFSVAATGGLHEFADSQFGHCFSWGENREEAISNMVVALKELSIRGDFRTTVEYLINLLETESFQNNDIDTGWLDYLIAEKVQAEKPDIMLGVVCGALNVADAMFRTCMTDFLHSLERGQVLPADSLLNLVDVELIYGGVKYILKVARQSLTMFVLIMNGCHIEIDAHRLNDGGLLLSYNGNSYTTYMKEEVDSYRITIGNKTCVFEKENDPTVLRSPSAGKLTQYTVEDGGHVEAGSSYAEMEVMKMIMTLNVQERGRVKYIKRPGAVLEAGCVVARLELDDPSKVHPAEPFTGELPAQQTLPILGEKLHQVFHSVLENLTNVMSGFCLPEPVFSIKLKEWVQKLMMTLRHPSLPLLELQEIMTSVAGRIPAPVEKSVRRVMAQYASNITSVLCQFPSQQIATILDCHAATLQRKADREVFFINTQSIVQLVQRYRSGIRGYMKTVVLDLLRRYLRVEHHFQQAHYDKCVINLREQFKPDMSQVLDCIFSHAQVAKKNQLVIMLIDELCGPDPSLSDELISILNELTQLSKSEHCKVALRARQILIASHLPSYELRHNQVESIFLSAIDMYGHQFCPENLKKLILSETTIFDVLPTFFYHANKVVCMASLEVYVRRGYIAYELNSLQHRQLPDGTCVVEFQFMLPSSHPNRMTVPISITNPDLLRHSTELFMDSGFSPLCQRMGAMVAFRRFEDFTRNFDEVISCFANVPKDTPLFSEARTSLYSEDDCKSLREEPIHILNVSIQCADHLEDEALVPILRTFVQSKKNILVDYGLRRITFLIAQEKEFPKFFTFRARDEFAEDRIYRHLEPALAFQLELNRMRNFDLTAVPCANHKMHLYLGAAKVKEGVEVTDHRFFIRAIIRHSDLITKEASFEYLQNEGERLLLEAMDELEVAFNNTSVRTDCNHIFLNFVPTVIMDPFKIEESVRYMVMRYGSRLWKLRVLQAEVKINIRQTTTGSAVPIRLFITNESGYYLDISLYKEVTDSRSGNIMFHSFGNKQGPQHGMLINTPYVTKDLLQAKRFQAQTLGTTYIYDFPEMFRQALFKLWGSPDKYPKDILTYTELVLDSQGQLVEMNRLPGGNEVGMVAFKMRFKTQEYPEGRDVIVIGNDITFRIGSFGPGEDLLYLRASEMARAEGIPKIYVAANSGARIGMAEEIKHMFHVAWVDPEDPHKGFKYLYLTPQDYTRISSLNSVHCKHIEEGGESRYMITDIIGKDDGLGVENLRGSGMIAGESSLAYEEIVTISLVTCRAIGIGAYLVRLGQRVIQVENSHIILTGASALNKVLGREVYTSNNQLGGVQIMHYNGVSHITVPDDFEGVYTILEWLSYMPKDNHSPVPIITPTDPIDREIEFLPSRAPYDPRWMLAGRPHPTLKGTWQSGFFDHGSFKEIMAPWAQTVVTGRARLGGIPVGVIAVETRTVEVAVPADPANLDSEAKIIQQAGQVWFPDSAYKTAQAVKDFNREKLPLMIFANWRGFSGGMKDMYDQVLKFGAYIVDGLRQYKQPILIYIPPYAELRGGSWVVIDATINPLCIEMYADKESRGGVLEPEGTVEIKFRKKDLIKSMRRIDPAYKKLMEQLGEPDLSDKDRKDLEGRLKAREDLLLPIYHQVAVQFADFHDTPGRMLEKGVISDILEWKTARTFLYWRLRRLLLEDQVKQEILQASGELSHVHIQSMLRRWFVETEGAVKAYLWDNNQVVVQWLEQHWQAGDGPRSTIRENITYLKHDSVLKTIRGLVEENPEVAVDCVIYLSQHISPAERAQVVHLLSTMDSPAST
row,Structure (SMILES),IC50 [nM]
1,C[C@H](NC(=O)N(C)C)c1ccc(C2CCN(c3ncc4nc(-c5ccccc5)oc4n3)CC2)cc1 [Example 4.47],80
2,COC(=O)N[C@@H](C)c1ccc(C2CCN(c3ncc4nc(-c5ccccc5)oc4n3)CC2)cc1 [Example 4.48],130
3,CCCOc1cnc(N2CCC(c3ccc([C@H](C)NC(C)=O)cc3)CC2)nc1 [Example 4.49],210
4,CCOc1cnc(N2CCC(c3ccc([C@H](C)NC(C)=O)cc3)CC2)nc1 [Example 4.50],460
5,CC(=O)N[C@@H](C)c1ccc(C2CCN(c3ncc(OC(C)C)cn3)CC2)cc1 [Example 4.51],310
6,CC(=O)N[C@@H](C)c1ccc(C2CCN(c3ncc(OCC4CC4)cn3)CC2)cc1 [Example 4.52],530
7,CC(=O)N[C@@H](C)c1ccc(C2CCN(c3ncc(OCC4CC4(F)F)cn3)CC2)cc1 (some centres unmarked) [Example 4.53],160
8,CCC(=O)N[C@@H](C)c1ccc(C2CCN(c3ncc(C4CC4)cn3)CC2)cc1 [Example 4.54],1800
9,COC(=O)c1cnc(N2CCC(c3ccc([C@H](C)NC(C)=O)cc3)CC2)s1 [Example 4.101],2700
10,CC(=O)N[C@@H](C)c1ccc(C2CCN(c3ncc(C(C)(C)C)s3)CC2)cc1 [Example 4.102],470
11,CCCCOc1ccc(N2CCC(c3ccc([C@H](C)NC(C)=O)cc3)CC2)c(C#N)c1 [Example 4.201],60
12,CCC(C)Oc1ccc(N2CCC(c3ccc([C@H](C)NC(C)=O)cc3)CC2)c(C#N)c1 (some centres unmarked) [Example 4.202],150
13,C[C@H](NC(=O)C1CC1)c1ccc(C2CCN(c3ncc4nc(-c5ccsc5)oc4n3)CC2)cc1 [Example 4.301],390
14,C[C@H](NC(=O)N(C)C)c1ccc(C2CCN(c3ncc4nc(-c5ccsc5)oc4n3)CC2)cc1 [Example 4.302],200
15,C[C@H](NC(=O)C1CC1)c1ccc(C2CCN(c3ncc(C4CC4)cn3)CC2)cc1 [Example 4.303],15600
16,C[C@H](NC(=O)N(C)C)c1ccc(C2CCN(c3ncc(C4CC4)cn3)CC2)cc1 [Example 4.304],240
17,CCCOc1cnc(N2CCC(c3ccc([C@H](C)NC(=O)C4CC4)cc3)CC2)nc1 [Example 4.305],1400
18,CCCOc1cnc(N2CCC(c3ccc([C@H](C)NC(=O)N(C)C)cc3)CC2)nc1 [Example 4.306],120
19,"CCOc1ccc(N2CCC(c3ccc([C@H](C)NC(C)=O)cc3)CC2)nc1 [Example 5.1, (S)—N-{1-[4-(5′-Ethoxy-3,4,5,6-tetrahydro-2H-[1,2′]bipyridinyl-4-yl)-phenyl]-ethyl}-acetamide]",200
20,COc1ccc(N2CCC(c3ccc([C@H](C)NC(C)=O)cc3)CC2)nc1 [Example 5.2],330
21,CCCOc1ccc(N2CCC(c3ccc([C@H](C)NC(C)=O)cc3)CC2)nc1 [Example 5.3],130
22,CC(=O)N[C@@H](C)c1ccc(C2CCN(c3ccc(OCC(C)C)cn3)CC2)cc1 [Example 5.4],90
23,CC(=O)N[C@@H](C)c1ccc(C2CCN(c3ncc4nc(-c5ccsc5)oc4n3)CC2)cc1 [Example 5.5],20
24,CC(=O)N[C@@H](C)c1ccc(C2CCN(c3ncc4nc(-c5ccc(C)s5)oc4n3)CC2)cc1 [Example 5.6],60
25,CC(=O)N[C@@H](C)c1ccc(C2CCN(c3ncc4nc(-c5cccs5)oc4n3)CC2)cc1 [Example 5.7],50

row,Structure (SMILES),IC50 [nM]
1,CC(=O)N[C@@H](C)c1ccc(C2CCN(c3ccc(C4(S(C)(=O)=O)CC4)cn3)CC2)cc1 [Example 5.8],19200
2,CNC(=O)c1csc(N2CCC(c3ccc([C@H](C)NC(C)=O)cc3)CC2)n1 [Example 5.9],25400
3,CC(=O)N[C@@H](C)c1ccc(C2CCN(c3ncc4nc(-c5ccncc5)oc4n3)CC2)cc1 [Example 5.10],100
4,CC(=O)N[C@@H](C)c1ccc(C2CCN(c3nccc(C(F)(F)F)c3F)CC2)cc1 [Example 5.11],150
5,CC(=O)N[C@@H](C)c1ccc(C2CCN(c3ccc(I)cn3)CC2)cc1 [Example 5.12],220
6,CC(=O)N[C@@H](C)c1ccc(C2CCN(c3cc(Cl)ccn3)CC2)cc1 [Example 5.13],3000
7,CCOC(=O)c1cc(C#N)c(N2CCC(c3ccc([C@H](C)NC(C)=O)cc3)CC2)nc1C(F)(F)F [Example 5.15],4900
8,CC(=O)N[C@@H](C)c1ccc(C2CCN(c3ncc(C(F)(F)F)cc3Cl)CC2)cc1 [Example 5.16],260
9,CC(=O)N[C@@H](C)c1ccc(C2CCN(c3cc(I)ccn3)CC2)cc1 [Example 5.17],1200
10,CC(=O)N[C@@H](C)c1ccc(C2CCN(c3cccc(C#N)n3)CC2)cc1 [Example 5.19],1000
11,CC(=O)N[C@@H](C)c1ccc(C2CCN(c3nc(-c4ccccc4)cs3)CC2)cc1 [Example 5.20],1200
12,CC(=O)N[C@@H](C)c1ccc(C2CCN(c3ccc(C(=O)C4CC4)cn3)CC2)cc1 [Example 5.21],860
13,CC(=O)N[C@@H](C)c1ccc(C2CCN(c3nc(C)cs3)CC2)cc1 [Example 5.22],2300
14,CC(=O)N[C@@H](C)c1ccc(C2CCN(c3ccc(Br)c(C)n3)CC2)cc1 [Example 5.23],420
15,COc1ccc2nc(N3CCC(c4ccc([C@H](C)NC(C)=O)cc4)CC3)ccc2c1 [Example 5.24],990
16,CC(=O)N[C@@H](C)c1ccc(C2CCN(c3ccc(-c4nc5ccccc5[nH]4)cn3)CC2)cc1 [Example 5.25],2400
17,CC(=O)N[C@@H](C)c1ccc(C2CCN(c3ccnc(C)n3)CC2)cc1 [Example 5.26],9000
18,CC(=O)N[C@@H](C)c1ccc(C2CCN(c3ccc4c(n3)C(=O)CC4)CC2)cc1 [Example 5.27],5200
19,CC(=O)N[C@@H](C)c1ccc(C2CCN(c3cc(C#N)ccn3)CC2)cc1 [Example 5.28],8000
20,CCOC(=O)c1ccnc(N2CCC(c3ccc([C@H](C)NC(C)=O)cc3)CC2)c1C [Example 5.29],170
21,CC(=O)N[C@@H](C)c1ccc(C2CCN(c3ccc(C(=O)Nc4ccccc4)cn3)CC2)cc1 [Example 5.30],180
22,CC(=O)N[C@@H](C)c1ccc(C2CCN(c3ccc4ccc(Cl)cc4n3)CC2)cc1 [Example 5.31],1000
23,CC(=O)N[C@@H](C)c1ccc(C2CCN(c3ccc4c(Cl)cccc4n3)CC2)cc1 [Example 5.32],3800
24,CC(=O)N[C@@H](C)c1ccc(C2CCN(c3nnc(-c4ccccc4)s3)CC2)cc1 [Example 5.33],330
25,CC(=O)N[C@@H](C)c1ccc(C2CCN(c3ccc(C(C)(F)F)cn3)CC2)cc1 [Example 5.34],3200

row,Structure (SMILES),IC50 [nM]
1,CC(=O)N[C@@H](C)c1ccc(C2CCN(c3ccc(C4(C#N)CC4)cn3)CC2)cc1 [Example 5.35],2800
2,C[C@H](NC(=O)C1CC1)c1ccc(C2CCN(c3nc(Cl)ncc3F)CC2)cc1 [Example 5.36],3100
3,C[C@H](NC(=O)C1CC1)c1ccc(C2CCN(c3ncnc(Cl)c3F)CC2)cc1 [Example 5.37],2900
4,CC(=O)N[C@@H](C)c1ccc(C2CCN(c3ncc(Br)cc3F)CC2)cc1 [Example 5.38],570
5,CC(=O)N[C@@H](C)c1ccc(C2CCN(c3nccc(I)c3C)CC2)cc1 [Example 5.39],340
6,CC(=O)N[C@@H](C)c1ccc(C2CCN(c3ccnc(Cl)c3C)CC2)cc1 [Example 5.40],410
7,CC(=O)N[C@@H](C)c1ccc(C2CCN(c3cc(C)ccn3)CC2)cc1 [Example 5.41],5000
8,CC(=O)N[C@@H](C)c1ccc(C2CCN(c3cccc(C)n3)CC2)cc1 [Example 5.42],210
9,COc1cccc(N2CCC(c3ccc([C@H](C)NC(C)=O)cc3)CC2)n1 [Example 5.43],630
10,CC(=O)N[C@@H](C)c1ccc(C2CCN(c3ccc(-c4ccc(Cl)cc4)cn3)CC2)cc1 [Example 5.44],70
11,CC(=O)N[C@@H](C)c1ccc(C2CCN(c3ccc(C)cn3)CC2)cc1 [Example 5.46],1600
12,CCOc1ccnc(N2CCC(c3ccc([C@H](C)NC(C)=O)cc3)CC2)c1 [Example 5.47],800
13,CCCOc1ccnc(N2CCC(c3ccc([C@H](C)NC(C)=O)cc3)CC2)c1 [Example 5.48],420
14,CC(=O)N[C@@H](C)c1ccc(C2CCN(c3ncccc3C)CC2)cc1 [Example 5.49],2600
15,"CC(=O)N[C@@H](C)c1ccc(C2CCN(c3ncc(-c4ccccc4)c(Cl)n3)CC2)cc1 [Example 5.50, (S)—N-(1-{4-[1-(4-chloro-5-phenyl-pyrimidin-2-yl)-piperidin-4-yl]-phenyl}-ethyl)-acetamide]",90
16,CC(=O)N[C@@H](C)c1ccc(C2CCN(c3cc(F)ncc3C)CC2)cc1 [Example 5.51],4800
17,COC(=O)c1cnc(N2CCC(c3ccc([C@H](C)NC(C)=O)cc3)CC2)cn1 [Example 5.53],7700
18,COC(=O)c1cncc(N2CCC(c3ccc([C@H](C)NC(C)=O)cc3)CC2)n1 [Example 5.54],9300
19,CCOC(=O)c1cnnc(N2CCC(c3ccc([C@H](C)NC(C)=O)cc3)CC2)c1 [Example 5.55],7600
20,CC(=O)N[C@@H](C)c1ccc(C2CCN(c3nc4ccc(C)cc4s3)CC2)cc1 [Example 5.56],1200
21,CCCOc1ccc(N2CCC(c3ccc([C@H](C)NC(=O)C4CC4)cc3)CC2)nc1 [Example 5.57],230
22,CCOc1ccc(N2CCC(c3ccc([C@H](C)NC(=O)C4CC4)cc3)CC2)nc1 [Example 5.58],860
23,"CC(=O)N[C@@H](C)c1ccc(C2CCN(c3cc(Cl)nc(N4CCCC4)n3)CC2)cc1 [Example 5.200, (S)—N-(1-{4-[1-(6-Chloro-2-pyrrolidin-1-yl-pyrimidin-4-yl)-piperidin-4-yl]-phenyl}-ethyl)-acetamide]",7500
24,CC(=O)N[C@@H](C)c1ccc(C2CCN(c3nc(N4CCCCC4)ncc3C(F)(F)F)CC2)cc1 [Example 5.201],790
